Assays:
[1] = Brain extract concentrations after single i.v. bolus; type: in vivo, Sprague-Dawley rats; conditions: for Concentration in rat brain extract: individual rats
Experimental: Six rats (3 males and 3 females) were dosed per dose group. […] Plasma and brain homogenates were stored at −80° C. until analysis.
An additional 48 rats (24 males and 24 females) received a single intravenous dose via the tail vein at the same doses as mentioned above. At 30 and 360 minutes post administration, 6 rats (3 males and 3 females) per dose group, per time point were euthanized, bled via cardiac puncture, and perfused, and brains were collected. The brains were homogenized. Blood was spun, and plasma was collected. Plasma and brain homogenate were stored at −80° C.
The animals were weighed prior to dosing and received a single i.v. dose of either test compound at a volume of 5 mL/kg. Blood was collected via the venus plexus (retro-orbital) into tubes containing (K2) EDTA. No more than 0.5 mL was collected per time point. […] The brain was removed, weighed, homogenized in sterile 0.9% saline at a volume equal to its weight, and stored at −80° C.
The amount of the test agent in the supernatant was determined by liquid chromatography tandem mass spectrometry (LC/MS/MS).
Analysis. Samples were analyzed by LC/MS/MS using an Agilent 6410 mass spectrometer coupled with an Agilent 1200 high pressure liquid chromatography (HPLC) and a CTC PAL chilled autosampler, all controlled by MassHunter software (Agilent). After separation on a hydrophilic interaction liquid chromatography (HILIC) HPLC column (Sepax) using an acetonitrile-ammonium acetate/acetic acid gradient system, peaks were analyzed by mass spectrometry (MS) using ESI ionization in multiple reaction monitoring (MRM) mode. MassHunter software was used to calculate the concentration of the test compounds in samples from the peak area using the appropriate calibration curves.

[2] = Single i.v. dose toxicity, 14-day observation: general observations and mortality (incl. nicotine tolerability study); type: in vivo, Sprague-Dawley rats
Experimental: Body weight and food consumption was measured daily for 14 days. On day 15, urine was collected on all surviving animals. The animals were euthanized and bled via cardiac puncture, and blood was collected for analysis. Tissues were collected, weighed, evaluated for gross abnormalities, and stored in 10% neutral-buffered formalin.
The animals were weighed prior to dosing and received a single i.v. dose via the lateral tail vein of either test compound or vehicle at a volume of 5 mL/kg.
All animals were observed daily.

nAChR α3/β4 = nAChR α3/β4 (Homo sapiens, UniProt P30926+P32297); test: cell-based; conditions: read-out: Normalized % Inhibition
Sequence of nAChR α3/β4 (P32297 32-505): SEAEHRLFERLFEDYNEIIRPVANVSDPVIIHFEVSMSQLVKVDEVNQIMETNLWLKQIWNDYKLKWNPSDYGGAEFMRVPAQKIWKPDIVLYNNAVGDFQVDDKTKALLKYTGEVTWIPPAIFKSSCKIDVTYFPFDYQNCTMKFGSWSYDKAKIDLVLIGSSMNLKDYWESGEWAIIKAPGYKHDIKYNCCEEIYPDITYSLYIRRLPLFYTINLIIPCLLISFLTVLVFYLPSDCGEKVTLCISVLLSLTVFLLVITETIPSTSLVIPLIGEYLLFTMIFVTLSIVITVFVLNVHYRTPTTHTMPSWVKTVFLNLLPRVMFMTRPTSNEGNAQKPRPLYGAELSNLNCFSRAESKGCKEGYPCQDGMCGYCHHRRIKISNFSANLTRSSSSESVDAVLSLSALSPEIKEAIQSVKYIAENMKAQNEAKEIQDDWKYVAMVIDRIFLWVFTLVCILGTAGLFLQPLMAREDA
Sequence of nAChR α3/β4 (P30926 22-498): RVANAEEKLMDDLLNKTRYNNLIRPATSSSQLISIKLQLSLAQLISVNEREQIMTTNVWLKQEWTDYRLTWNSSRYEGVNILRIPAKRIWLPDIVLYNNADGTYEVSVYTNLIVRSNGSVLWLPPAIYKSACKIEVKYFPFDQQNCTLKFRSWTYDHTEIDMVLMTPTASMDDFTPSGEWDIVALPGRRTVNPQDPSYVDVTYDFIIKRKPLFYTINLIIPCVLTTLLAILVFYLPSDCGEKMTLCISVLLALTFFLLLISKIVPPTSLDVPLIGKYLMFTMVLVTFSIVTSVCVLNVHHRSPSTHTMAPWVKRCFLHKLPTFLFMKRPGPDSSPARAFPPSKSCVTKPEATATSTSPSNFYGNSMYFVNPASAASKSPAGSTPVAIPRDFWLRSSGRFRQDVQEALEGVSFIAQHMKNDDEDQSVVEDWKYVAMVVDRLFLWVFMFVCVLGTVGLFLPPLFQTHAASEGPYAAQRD
Experimental: Briefly, cells were incubated with […] dye for 30 min at 37° C.

Q: Which “Concentration in rat brain extract” value ([1]; Anatabine 0.1 mg/kg dose group, time point 0.5 hr) does the source give for `C1=CCC(c2cccnc2)NC1` (racemic) [Anatabine, 1,2,3,6-tetrahydro-[2,3′]bipyridinyl] here?
A: Its value is “<LLQ”.

Q: And the “Concentration in rat brain extract” value ([1]; Anatabine 0.1 mg/kg dose group, time point 6 hr)?
A: Its value is “<LLQ”.

Q: What about the “Concentration in rat brain extract” value ([1]; Anatabine 0.1 mg/kg dose group, time point 24 hr) of the same molecule?
A: Its value is “<LLQ”.

Q: And the “Concentration in rat brain extract” value ([1]; Anatabine 0.75 mg/kg dose group, time point 24 hr)?
A: Its value is “<LLQ”.

Q: And the “Concentration in rat brain extract” value ([1]; Anatabine 1.0 mg/kg dose group, time point 6 hr)?
A: The value was “<LLQ”.

Q: What about the “Concentration in rat brain extract” value ([1]; Anatabine 1.0 mg/kg dose group, time point 24 hr) of the same molecule?
A: The value was “<LLQ”.

Q: What about the “Avg. Conc. (Combined Male and Female)” value ([1]; Rat Brain, Anatabine 0.75 mg/kg, combined, 24 hr) of the same molecule?
A: The value was “<LLQ”.

Q: What about the “Avg. Conc. (Male or Female)” value ([1]; Rat Brain, Anatabine 0.75 mg/kg, female, 24 hr) of the same molecule?
A: The value was “<LLQ”.

Q: And the “Avg. Conc. (Male or Female)” value ([1]; Rat Brain, Anatabine 0.75 mg/kg, male, 24 hr)?
A: The value was “<LLQ”.

Q: And the “Avg. Conc. (Male or Female)” value ([1]; Rat Brain, Anatabine 1.0 mg/kg, female, 24 hr)?
A: Its value is “<LLQ”.

Q: And the “appearance in brain tissue” value ([1]; rat, following i.v. administration)?
A: Its value is “rapidly appear in brain tissue”.

Q: And the “Mean concentration in rat brain extracts” value ([1]; single i.v. 0.75 mg/kg, female, 24 hr)?
A: The value was “<LLQ”.

Q: What about the “Mean concentration in rat brain extracts” value ([1]; single i.v. 0.75 mg/kg, male, 24 hr) of the same molecule?
A: The value was “<LLQ”.

Q: And the “Mean concentration in rat brain extracts” value ([1]; single i.v. 1.0 mg/kg, female, 24 hr)?
A: Its value is “<LLQ”.

Q: Which “time until return to normal, tolerability study” value ([2]; female rats, nicotine 1.25 and 1.0 mg/kg i.v., post dose) does the source give for `CN1CCCC1c1cccnc1.O=C(O)C(O)C(O)C(=O)O` (single isomer, unassigned; (-)) [Nicotine, (−) Nicotine hydrogen tartrate, reference compound] here?
A: Its value is at most 20 min.

Q: What about the “observations after dosing, tolerability study” value ([2]; female rats, single i.v. nicotine 1.25 mg/kg (1) and 1.0 mg/kg (3)) of the same molecule?
A: The value was “experienced severe tremors upon completion of dosing”.

Q: What about the “time until return to normal” value ([2]; rat, nicotine 0.75 mg/kg i.v., post dose) of the same molecule?
A: Its value is 15 to 20 min.

Q: And the observations after dosing ([2]; rat, single i.v. 0.75 mg/kg nicotine)?
A: Its observations after dosing is “experienced tremors upon compound administration”.

Q: What about the mortality ([2]; rat, single i.v. 0.75 mg/kg nicotine (5 males, 5 females)) of the same molecule?
A: Its mortality is “One male and two females died post dose”.

Q: And the inhibition at 0.3 µM (nAChR α3/β4)?
A: Its inhibition at 0.3 µM is 19.1%.

Q: What about the inhibition at 1 µM (nAChR α3/β4) of the same molecule?
A: Its inhibition at 1 µM is 19%.

Q: And the inhibition at 10 µM (nAChR α3/β4)?
A: The inhibition at 10 µM was 95.8%.

Q: And the inhibition at 30 µM (nAChR α3/β4)?
A: The inhibition at 30 µM was 139%.

Q: And the inhibition at 100 µM (nAChR α3/β4)?
A: Its inhibition at 100 µM is 145%.

Q: And the inhibition at 300 µM (nAChR α3/β4)?
A: Its inhibition at 300 µM is 144%.

Q: What about the inhibition at 1000 µM (nAChR α3/β4) of the same molecule?
A: Its inhibition at 1000 µM is 142%.

From patent US20160030407A1, “Method of Treating Inflammatory Lung Disease” (priority 2010, published 2016)
